The source of these data is patent US12084472B2 (Ardelyx, Inc., priority 2015, dated 2024).

Counter-ions that a name gives are not always drawn. Bounds are passed on as bounds.

This assay deals with T1, human TGR5 (Homo sapiens, UniProt Q8TDU6).
T1 construct: expressed in transfected cells; host or cells: HEK293
T1 sequence (Q8TDU6 1-330): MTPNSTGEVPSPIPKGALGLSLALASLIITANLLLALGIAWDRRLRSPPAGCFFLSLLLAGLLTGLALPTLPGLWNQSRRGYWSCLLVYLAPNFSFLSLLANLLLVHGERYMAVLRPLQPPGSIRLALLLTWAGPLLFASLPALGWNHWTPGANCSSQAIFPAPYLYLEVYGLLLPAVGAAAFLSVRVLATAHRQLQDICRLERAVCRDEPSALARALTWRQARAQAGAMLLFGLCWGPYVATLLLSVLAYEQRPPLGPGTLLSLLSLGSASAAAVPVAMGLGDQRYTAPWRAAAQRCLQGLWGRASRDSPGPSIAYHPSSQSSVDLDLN
The assay can be described thus: Cell-based TGR5 assay (cAMP generation, HTRF). The following applies: HEK293 cells stably transfected with human TGR5; cAMP by HTRF; 30 minutes at 37° C.; read-out: pEC50 Human TGR5 (converted). The essentials:
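Read-out was HTRF detection of cAMP, converted to concentration via a standard curve and fitted (3-parameter logistic) for pEC50 and maximal response. Agonist stimulation used HEK293 cells stably transfected with human TGR5, incubated 30 min at 37° C in IBMX-containing buffer at 0.05 nM to 10 μM compound.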
With `Clc1ccc(CNC2(c3cnccc3-c3ccccc3OC3CC3)CC2)c(Cl)c1` [Compound I-28, 1-[4-(2-cyclopropoxyphenyl)pyridin-3-yl]-N-[(2,4-dichlorophenyl)methyl]cyclopropan-1-amine], the EC50 is 126 to 1000 nM.

With `CCOC(=O)NCCCN(CCCSc1ccc(Cl)c(COC2(c3cnccc3-c3ccccc3OC3CC3)CC2)c1)C(=O)[C@@H](O)[C@@H](O)[C@H](O)[C@@H](O)CO` [Compound I-596, ethyl N-{3-[(2S,3S,4R,5S)-N-(3-{[4-chloro-3-({1-[4-(2-cyclopropoxyphenyl)pyridin-3-yl]cyclopropoxy}methyl)phenyl]sulfanyl}propyl)-2,3,4,5,6-pentahydroxyhexanamido]propyl}carbamate], the EC50 was 126 to 1000 nM.

Turning to `CC(CCCCN(CCS(C)(=O)=O)C(=O)[C@@H](O)[C@@H](O)[C@H](O)[C@@H](O)CO)c1ccc(Cl)c(CNC2(c3cnccc3-c3ccccc3OC3CC3)CC2)c1` (stereo partly drawn) [Compound I-291, (2S,3S,4R,5S)-N-(5-{4-chloro-3-[({1-[4-(2-cyclopropoxyphenyl)pyridin-3-yl]cyclopropyl}amino)methyl]phenyl}hexyl)-2,3,4,5,6-pentahydroxy-N-(2-methanesulfonylethyl)hexanamide], the EC50 is < 100 nM.

Regarding `CS(=O)(=O)CCCN(CCCSc1ccc(Cl)c(CNC2(c3cnccc3-c3ccccc3OC3CC3)CC2)c1)C(=O)[C@@H](O)[C@@H](O)[C@H](O)[C@@H](O)CO` [Compound I-525, (2S,3S,4R,5S)-N-[3-({4-chloro-3-[({1-[4-(2-cyclopropoxyphenyl)pyridin-3-yl]cyclopropyl}amino)methyl]phenyl}sulfanyl)propyl]-2,3,4,5,6-pentahydroxy-N-(3-methanesulfonylpropyl) hexanamide], the EC50 is 126 to 1000 nM.

As for `O=C1CCCN1CCCN(CCCSc1ccc(Cl)c(COC2(c3cnccc3-c3ccccc3OC3CC3)CC2)c1)C(=O)[C@@H](O)[C@@H](O)[C@H](O)[C@@H](O)CO` [Compound I-520, (2S,3S,4R,5S)-N-(3-{[4-chloro-3-({1-[4-(2-cyclopropoxyphenyl)pyridin-3-yl]cyclopropoxy}methyl)phenyl]sulfanyl}propyl)-2,3,4,5,6-pentahydroxy-N-[3-(2-oxopyrrolidin-1-yl)propyl]hexanamide], the EC50 was 126 to 1000 nM.

With `Cc1ccc(C(C)CCCC(=O)NC[C@H](O)[C@@H](O)[C@H](O)[C@H](O)CO)cc1CNC1(c2cnccc2-c2ccccc2OC2CC2)CC1` (stereo partly drawn) [Compound I-257, 5-[3-[([1-[4-(2-cyclopropoxyphenyl)pyridin-3-yl]cyclopropyl]amino)methyl]-4-methylphenyl]-N-[(2S,3R,4R,5R)-2,3,4,5,6-pentahydroxyhexyl]hexanamide dihydrochloride], the EC50 is < 100 nM.

`CCOC(=O)NCCCN(CCCCSc1ccc(Cl)c(COC2(c3cnccc3-c3ccccc3OC3CC3)CC2)c1)C(=O)[C@@H](O)[C@@H](O)[C@H](O)[C@@H](O)CO` [Compound I-578, ethyl N-{3-[(2S,3S,4R,5S)-N-(4-{[4-chloro-3-({1-[4-(2-cyclopropoxyphenyl)pyridin-3-yl]cyclopropoxy}methyl)phenyl]sulfanyl}butyl)-2,3,4,5,6-pentahydroxyhexanamido]propyl}carbamate]: the EC50 was < 100 nM.

`CNS(=O)(=O)CCN(C[C@H](O)[C@@H](O)[C@H](O)[C@H](O)CO)C(=O)CCCSc1ccc(Cl)c(COC2(c3cnccc3-c3ccccc3OC3CC3)CC2)c1` [Compound I-694, 4-{[4-chloro-3-({1-[4-(2-cyclopropoxyphenyl)pyridin-3-yl]cyclopropoxy}methyl)phenyl]sulfanyl}-N-[2-(methylsulfamoyl)ethyl]-N-[(2S,3R,4R,5R)-2,3,4,5,6-pentahydroxyhexyl]butanamide]: the EC50 was 126 to 1000 nM.
